Read-outs that look alike come from different tables or passages of the source.

For one test, the target named is T1, activated human C1 (Homo sapiens, UniProt P09871).
T1 construct: C1r and C1s cleaved to two-chain proteases
Nature of the test: Test Code 026 (C1 inhibitor). The settings on record: serial dilution assay, twofold dilutions; higher well number indicates higher activity. It is filed as biochemical. The source says:
(§1) An active inhibitor protects C2 from C1 and C4; (ii) Test Code 035 (C3-C9 inhibitor): This test determines the ability of the late components of human complement (C3-C9) to lyse EAC 142 in the presence of appropriate dilutions of the test compound. An active inhibitor protects EAC 142 from lysis by human C3-C9; (iii) Test Code 036 (C-Shunt inhibitor): In this test human erythrocytes rendered fragile are lysed in autologous serum via the shunt pathway activated by cobra venom factor in the presence of appropriate dilutions of the test compound. Inhibition of the shunt pathway results in failure of lysis; (iv) Forssman Vasculitis Test: Here, the well known complement dependent lesion, Forssman vasculitis, is produced in guinea pigs by intradermal injection of rabbit anti-Forssman antiserum. […] Percent inhibition is calculated by comparison with simultaneous controls. […]

The test system of test [1] is late components of human complement (C3-C9). Nature of the test: Test Code 035 (C3-C9 inhibitor), lysis of EAC 142. Format: biochemical. To be noted: serial dilution assay, twofold dilutions; higher well number indicates higher activity.
Text: as §1

In test [2] the test system is shunt pathway activated by cobra venom factor. Nature of the test: Test Code 036 (C-Shunt inhibitor), lysis of human erythrocytes in autologous serum. Format: biochemical. To be noted: serial dilution assay, twofold dilutions; higher well number indicates higher activity.
Text: as §1

Test [3] concerns complement activity of sera. The test is described as follows: Guinea Pig Intraperitoneal Test (GPIP). It is filed as in vivo. The settings on record: Cavia porcellus, ip, 200 mg./kg. i.p. The source says:
An active inhibitor protects C2 from C1 and C4; (ii) Test Code 035 (C3-C9 inhibitor): This test determines the ability of the late components of human complement (C3-C9) to lyse EAC 142 in the presence of appropriate dilutions of the test compound. An active inhibitor protects EAC 142 from lysis by human C3-C9; (iii) Test Code 036 (C-Shunt inhibitor): In this test human erythrocytes rendered fragile are lysed in autologous serum via the shunt pathway activated by cobra venom factor in the presence of appropriate dilutions of the test compound. Inhibition of the shunt pathway results in failure of lysis; (iv) Forssman Vasculitis Test: Here, the well known complement dependent lesion, Forssman vasculitis, is produced in guinea pigs by intradermal injection of rabbit anti-Forssman antiserum. The lesion is measured in terms of diameter, edema and hemorrhage and the extent to which a combined index of these is inhibited by prior intraperitoneal injection of the test compound at 200 mg./kg. is then reported, unless otherwise stated; (v) Forssman Shock Test: Lethal shock is produced in guinea pigs by an i.v. injection of anti-Forssman antiserum and the harmonic mean death time of treated guinea pigs is compared with that of simultaneous controls; (vi) Complement Level Reduction Test: In this test, the above dosed guinea pigs, or others, are bled for serum and the complement level is determined in undiluted serum by the capillary tube method of U.S. Pat. No. 3,876,376 and compared to undosed control guinea pigs; (vii) Cap 50 Test: Here, appropriate amounts of the test compound are added to a pool of guinea pig serum in vitro, after which the undiluted serum capillary tube assay referred to above is run. The concentration of compound inhibiting 50% is reported; (viii) Guinea Pig Intraperitoneal Test (GPIP): Guinea pigs weighing about 300 g. are dosed intraperitoneally (i.p.) with 200 mg./kg. of the test compound dissolved in saline and adjusted to pH 7-8. Approximately 0.4 ml. blood samples, taken by orbital sinus puncture 30 minutes and one hour after injections, are collected directly into centrifuge tubes; 5 ml. blood samples, taken by decapitation 2 hours after injection are collected directly into diSPo® beakers. The samples were allowed to clot, centrifuged, and the resultant sera are assayed for complement activity using the capillary complement assay. Percent inhibition is calculated by comparison with simultaneous controls. The results appear in Table I together with results of Test Code 026, 035, 036, Cap 50 and % Inhibition.

Where [4] appears, read: 0.5 h, serum 30 minutes after injection, read-out: In Vivo Activity (Guinea Pig) % Inhibition Intraperitoneal, 30 minutes.
Where [5] appears, read: 1 h, serum 60 minutes after injection, read-out: In Vivo Activity (Guinea Pig) % Inhibition Intraperitoneal, 60 minutes.
The mark [6] stands for this setting: 2 h, serum 120 minutes after injection, read-out: In Vivo Activity (Guinea Pig) % Inhibition Intraperitoneal, 120 minutes.

T1 sequence (P09871 16-688): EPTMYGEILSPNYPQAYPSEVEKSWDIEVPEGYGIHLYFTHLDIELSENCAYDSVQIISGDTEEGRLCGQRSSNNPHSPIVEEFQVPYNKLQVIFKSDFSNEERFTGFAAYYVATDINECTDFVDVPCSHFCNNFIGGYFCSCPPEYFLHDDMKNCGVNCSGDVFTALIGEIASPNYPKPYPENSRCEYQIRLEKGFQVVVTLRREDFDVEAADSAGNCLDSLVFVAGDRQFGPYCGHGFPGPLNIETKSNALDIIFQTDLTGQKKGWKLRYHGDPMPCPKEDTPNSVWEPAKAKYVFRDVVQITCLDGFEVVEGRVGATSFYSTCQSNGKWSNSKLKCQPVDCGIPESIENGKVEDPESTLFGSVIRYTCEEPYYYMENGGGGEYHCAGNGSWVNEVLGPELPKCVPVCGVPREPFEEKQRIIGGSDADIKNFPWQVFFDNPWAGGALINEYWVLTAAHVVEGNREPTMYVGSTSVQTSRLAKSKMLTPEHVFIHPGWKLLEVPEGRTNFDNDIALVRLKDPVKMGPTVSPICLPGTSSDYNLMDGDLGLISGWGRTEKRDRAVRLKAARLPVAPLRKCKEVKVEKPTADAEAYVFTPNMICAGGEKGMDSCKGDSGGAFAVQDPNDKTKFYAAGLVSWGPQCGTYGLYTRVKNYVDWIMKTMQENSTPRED
T1 sequence (P00736 18-705 partner): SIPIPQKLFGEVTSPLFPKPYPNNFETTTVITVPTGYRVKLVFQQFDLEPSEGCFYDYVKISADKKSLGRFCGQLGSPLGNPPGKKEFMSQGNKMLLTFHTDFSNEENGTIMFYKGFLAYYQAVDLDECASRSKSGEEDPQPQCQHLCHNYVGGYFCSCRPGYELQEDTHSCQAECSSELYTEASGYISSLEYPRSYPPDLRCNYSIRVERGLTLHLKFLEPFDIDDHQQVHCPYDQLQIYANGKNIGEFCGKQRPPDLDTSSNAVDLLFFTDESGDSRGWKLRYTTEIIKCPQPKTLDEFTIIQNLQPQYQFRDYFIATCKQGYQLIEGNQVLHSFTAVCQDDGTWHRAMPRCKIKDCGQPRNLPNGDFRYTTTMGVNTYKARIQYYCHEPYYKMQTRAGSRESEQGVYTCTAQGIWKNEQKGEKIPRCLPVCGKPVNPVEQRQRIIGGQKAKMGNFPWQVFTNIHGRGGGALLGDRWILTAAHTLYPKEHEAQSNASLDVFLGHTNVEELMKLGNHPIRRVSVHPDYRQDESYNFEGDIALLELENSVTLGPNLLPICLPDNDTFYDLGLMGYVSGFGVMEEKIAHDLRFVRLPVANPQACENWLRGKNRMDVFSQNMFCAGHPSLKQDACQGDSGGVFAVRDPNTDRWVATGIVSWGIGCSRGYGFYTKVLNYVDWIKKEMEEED
T1 sequence (P02745 23-245 partner): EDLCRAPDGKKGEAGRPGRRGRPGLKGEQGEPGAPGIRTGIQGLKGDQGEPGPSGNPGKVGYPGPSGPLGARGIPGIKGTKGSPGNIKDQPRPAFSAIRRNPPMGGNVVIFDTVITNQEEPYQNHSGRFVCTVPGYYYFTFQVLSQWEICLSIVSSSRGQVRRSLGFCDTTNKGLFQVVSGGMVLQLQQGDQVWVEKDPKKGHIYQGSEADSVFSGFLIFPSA
T1 sequence (P02746 28-253 partner): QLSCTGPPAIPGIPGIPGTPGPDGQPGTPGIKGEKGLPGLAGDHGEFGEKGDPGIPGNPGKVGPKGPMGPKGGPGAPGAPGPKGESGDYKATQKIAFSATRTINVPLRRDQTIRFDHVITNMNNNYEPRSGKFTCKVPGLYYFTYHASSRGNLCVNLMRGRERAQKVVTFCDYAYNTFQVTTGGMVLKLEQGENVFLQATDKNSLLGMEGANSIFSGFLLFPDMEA
T1 sequence (P02747 29-245 partner): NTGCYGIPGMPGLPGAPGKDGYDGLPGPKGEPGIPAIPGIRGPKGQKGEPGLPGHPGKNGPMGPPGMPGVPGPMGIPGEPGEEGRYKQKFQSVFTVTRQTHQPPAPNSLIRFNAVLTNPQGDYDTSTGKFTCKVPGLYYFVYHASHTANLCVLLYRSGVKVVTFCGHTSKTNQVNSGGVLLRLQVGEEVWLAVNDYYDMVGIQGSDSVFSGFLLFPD

For the compound `O=C([O-])c1cc(NS(=O)(=O)c2cc(S(=O)(=O)Nc3cc(C(=O)[O-])c(C(=O)[O-])c(C(=O)[O-])c3)c3cc(S(=O)(=O)Nc4cc(C(=O)[O-])c(C(=O)[O-])c(C(=O)[O-])c4)cc(S(=O)(=O)Nc4cc(C(=O)[O-])c(C(=O)[O-])c(C(=O)[O-])c4)c3c2)cc(C(=O)[O-])c1C(=O)[O-].[Na+].[Na+].[Na+].[Na+].[Na+].[Na+].[Na+].[Na+].[Na+].[Na+].[Na+].[Na+]` [5,5',5",5'"-[1,3,5,7-Naphthalenetetrayltetrakis[sulfonylimino)]-tetra-1,2,3-benzenetricarboxylic acid, dodecasodium salt], the “Cl 026 Wells” value at activated human C1 was “+2 Wells”. For the same compound, the “C-Late 035 Wells” value in test [1] is reported as “+4 Wells”. For the same compound, the “Shunt Inhibition 036 Wells” value in test [2] is given as “+6 Wells”. For the same compound, the values for the inhibition at 200 mg/kg in test [3] (setting [4]), in test [3] (setting [5]) and in test [3] (setting [6]) were -80%, -77% and -85%, respectively.

Take `O=C([O-])c1cc(NS(=O)(=O)c2cc(S(=O)(=O)Nc3cc(C(=O)[O-])cc(C(=O)[O-])c3)c3cc(S(=O)(=O)Nc4cc(C(=O)[O-])cc(C(=O)[O-])c4)cc(S(=O)(=O)Nc4cc(C(=O)[O-])cc(C(=O)[O-])c4)c3c2)cc(C(=O)[O-])c1.[Na+].[Na+].[Na+].[Na+].[Na+].[Na+].[Na+].[Na+]` [5,5',5",5'"-[1,3,5,7-Naphthalenetetrayltetrakis(sulfonylimino)]-tetra-1,3-benzenedicarboxylic acid, octasodium salt]: the “Cl 026 Wells” value at activated human C1 was “+7 Wells”. In addition, the “C-Late 035 Wells” value in test [1] was “+2 Wells”. Besides, in test [2], the “Shunt Inhibition 036 Wells” value is on record as “+6 Wells”. Further, the inhibition at 200 mg/kg in test [3] (setting [4]) was -66%; in test [3] (setting [5]), -71%; in test [3] (setting [6]), -76%.

The values above are taken from patent publication US4266077A, “Naphthalenetetrayltetrakis(sulfonylimino)-aryl multicarboxylic acids and salts thereof” (priority 1979, dated 1981).
